Experimental data: patent US20210330611A1, “THERAPY FOR NEUROLOGICAL DISEASES/DISORDERS” (priority 2020, published 2021)
Counter-ions that a name gives are not always drawn. Like-named read-outs stand apart in the source and are kept apart here.

How the values were obtained:
[1] = test system: fibrin-induced microglia activation; assay: Image-based assay of fibrin-induced microglia activation (HTS and dose response); format: cell-based, rat; settings: for inhibition at 10 µM: Rattus norvegicus, Microglia, read-out: Fibrin % inhibition
primary rat microglia [2] = assay: Cell toxicity (dead cells, size <150 μm2) in LPS assay
[3] = test system: LPS-induced microglia activation; assay: Image-based assay of LPS-induced microglia activation (HTS and dose response); format: cell-based, rat; settings: for inhibition at 10 µM: Rattus norvegicus, Microglia, read-out: LPS % inhibition
primary rat microglia [4] = assay: Cell toxicity (dead cells, size <150 μm2) in coated fibrin (cFib) assay;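 also: share of dead cells sized under 150 µm2 at 10 µM in fibrin-stimulated microglia HTS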
[5] = test system: fibrin- and LPS-induced microglia activation; assay: cells; format: cell-based, rat
[6] = primary microglia HTS, 10 μM, fibrin-stimulated, cell size >800 μm^2 as marker of activation
[7] = primary microglia HTS, 10 μM, LPS assay, cell size <150 μm^2 as marker of toxicity
[8] = primary microglia HTS, 10 μM, LPS-stimulated, cell size >800 μm^2 as marker of activation
[9] = primary microglia HTS, 10 μM, fibrin assay, cell size <150 μm^2 as marker of toxicity
[10] = HTS of 1907 compounds, quadrant by fibrin and LPS inhibition
[11] = primary microglia HTS, fibrin stimulation, increased cell size (>800 μm^2) as marker of activation
[12] = primary microglia HTS, LPS stimulation, decreased size (<150 μm^2) as marker of toxicity
[13] = 48 h, primary microglia HTS, LPS stimulation, increased cell size (>800 μm^2) as marker of activation
[14] = primary microglia HTS, fibrin stimulation, decreased size (<150 μm^2) as marker of toxicity
[15] = quadrant by fibrin and LPS inhibition in HTS of 1907 compounds
[16] = primary HTS, 10 μM, fibrin-stimulated primary microglia
[17] = primary HTS, 10 μM, LPS assay, dead cells size <150 μm2
[18] = primary HTS, 10 μM, LPS-stimulated primary microglia
[19] = primary HTS, 10 μM, fibrin assay, dead cells size <150 μm2

How did the inhibition at 10 µM [1, 6] turn out when `COc1ccc(NS(=O)(=O)c2ccc(N)cc2)nn1` [Sulfamethoxypyridazine] was run?
Its inhibition at 10 µM is 21%.

What about the “LPS % cell toxicity” value (primary rat microglia [2]; [7]) of the same compound?
Its value is 0%.

And the inhibition at 10 µM [3, 8]?
Its inhibition at 10 µM is 15%.

What about the “Fibrin % cell toxicity” value (primary rat microglia [4]; [9]) of the same compound?
Its value is 1%.

What about the “Quadrant (FIG. 5b)” value [5, 10] of the same compound?
The value was “Q4”.

Which results are given for Sucralfate?
Fibrin % inhibition [1, 6]: −35%; LPS % cell toxicity (primary rat microglia [2]; [7]): 0%; LPS % inhibition [3, 8]: 22%; Fibrin % cell toxicity (primary rat microglia [4]; [9]): 1%; Quadrant (FIG. 5b) [5, 10]: Q4

What does the source list for `C[C@@H]1C/C=C/C=C/C=C/C=C/[C@H](O[C@@H]2O[C@H](C)[C@@H](O)[C@H](N)[C@@H]2O)C[C@@H]2O[C@](O)(C[C@@H](O)C[C@H]3O[C@@H]3/C=C/C(=O)O1)C[C@H](O)[C@H]2C(=O)O` [Natamycin]?
inhibition at 10 µM [1, 11]: -7%; LPS % cell toxicity (primary rat microglia [2]; [12]): 0%; inhibition at 10 µM [3, 13]: 35%; Fibrin % cell toxicity (primary rat microglia [4]; [14]): 1%; Quadrant (FIG. 5b) [5, 15]: Q4

What does the source list for `CN(C)CCCOc1nn(Cc2ccccc2)c2ccccc12` [Benzydamine]?
inhibition at 10 µM [1, 16]: -16%; LPS % cell toxicity (primary rat microglia [2]; [17]): 1%; inhibition at 10 µM [3, 18]: 30%; Fibrin % cell toxicity (primary rat microglia [4]; [19]): 1%; Quadrant (FIG. 5b) ([5]; primary HTS, 10 μM): Q4

What does the source list for `CCN(CC)CCNC(=O)c1cc(S(C)(=O)=O)ccc1OC` [Tiapride]?
inhibition at 10 µM [1, 6]: -18%; LPS % cell toxicity (primary rat microglia [2]; [7]): 0%; inhibition at 10 µM [3, 8]: 6%; Fibrin % cell toxicity (primary rat microglia [4]; [9]): 0%; Quadrant (FIG. 5b) [5, 10]: Q4

How did the inhibition at 10 µM [1, 16] turn out when `Cc1cc(C2CCCCC2)n(O)c(=O)c1` [Ciclopirox] was run?
Its inhibition at 10 µM is -1%.

What about the “LPS % cell toxicity” value (primary rat microglia [2]; [17]) of the same compound?
Its value is 1%.

And the inhibition at 10 µM [3, 18]?
Its inhibition at 10 µM is 40%.

And the “Fibrin % cell toxicity” value (primary rat microglia [4]; [19])?
Its value is 1%.

And the “Quadrant (FIG. 5b)” value ([5]; primary HTS, 10 μM)?
Its value is “Q4”.

How did the inhibition at 10 µM [1, 6] turn out when `[H]/N=C(/N)NS(=O)(=O)c1ccc(N)cc1` [Sulfaguanidine] was run?
Its inhibition at 10 µM is -23%.

And the “LPS % cell toxicity” value (primary rat microglia [2]; [7])?
The value was 0%.

And the inhibition at 10 µM [3, 8]?
Its inhibition at 10 µM is 12%.

What about the “Fibrin % cell toxicity” value (primary rat microglia [4]; [9]) of the same compound?
Its value is 1%.

And the “Quadrant (FIG. 5b)” value [5, 10]?
Its value is “Q4”.

Which results are given for `CC(=O)OCC(=O)[C@@]12OC3(CCCC3)O[C@@H]1C[C@H]1[C@@H]3CCC4=CC(=O)C=C[C@]4(C)[C@@]3(F)[C@@H](O)C[C@@]12C` [Amcinonide]?
inhibition at 10 µM [1, 11]: 112%; LPS % cell toxicity (primary rat microglia [2]; [12]): 6%; inhibition at 10 µM [3, 13]: 119%; Fibrin % cell toxicity (primary rat microglia [4]; [14]): 7%; Quadrant (FIG. 5b) [5, 15]: Q2

With `CC(C)NCC(O)COc1ccc(COCCOC(C)C)cc1` (stereo not shown) [Bisoprolol] as the compound, how does the inhibition at 10 µM [1, 16] read?
Its inhibition at 10 µM is 1%.

What about the “LPS % cell toxicity” value (primary rat microglia [2]; [17]) of the same compound?
Its value is 0%.

And the inhibition at 10 µM [3, 18]?
The inhibition at 10 µM was 13%.

And the “Fibrin % cell toxicity” value (primary rat microglia [4]; [19])?
The value was 0%.

What about the “Quadrant (FIG. 5b)” value ([5]; primary HTS, 10 μM) of the same compound?
Its value is “Q4”.

What does the source list for `COc1ccc2cc1Oc1ccc(cc1)C[C@H]1c3c(cc4c(c3Oc3cc5c(cc3OC)CCN(C)[C@@H]5C2)OCO4)CCN1C` [Cepharanthine]?
inhibition at 10 µM [1, 11]: 114%; LPS % cell toxicity (primary rat microglia [2]; [12]): 58%; inhibition at 10 µM [3, 13]: 130%; Fibrin % cell toxicity (primary rat microglia [4]; [14]): 85%; Quadrant (FIG. 5b) [5, 15]: Q2

What does the source list for `C=CC1=C(C(=O)O)N2C(=O)[C@@H](NC(=O)/C(=N\O)c3csc(N)n3)[C@H]2SC1` [Cefdinir]?
inhibition at 10 µM [1, 16]: -9%; LPS % cell toxicity (primary rat microglia [2]; [17]): 0%; inhibition at 10 µM [3, 18]: 16%; Fibrin % cell toxicity (primary rat microglia [4]; [19]): 1%; Quadrant (FIG. 5b) ([5]; primary HTS, 10 μM): Q4

`NCCc1cc(O)c(O)cc1O` [Oxidopamine Hydrochloride] was tested. Which inhibition at 10 µM [1, 11] did it give?
The inhibition at 10 µM was 1%.

What about the “LPS % cell toxicity” value (primary rat microglia [2]; [12]) of the same compound?
The value was 0%.

And the inhibition at 10 µM [3, 13]?
Its inhibition at 10 µM is 19%.

What about the “Fibrin % cell toxicity” value (primary rat microglia [4]; [14]) of the same compound?
Its value is 0%.

What about the “Quadrant (FIG. 5b)” value [5, 15] of the same compound?
Its value is “Q4”.

For `CS(=O)(=O)c1ccc([C@@H](O)[C@@H](CF)NC(=O)C(Cl)Cl)cc1` [Florfenicol], which inhibition at 10 µM ([1]; primary microglia HTS, fibrin stimulation, activation = cell size >800 μm2) is on record?
Its inhibition at 10 µM is -12%.

And the “LPS % cell toxicity” value (primary rat microglia [2]; primary microglia HTS, LPS stimulation, toxicity = cell size <150 μm2)?
Its value is 1%.

What about the inhibition at 10 µM ([3]; 48 h, primary microglia HTS, LPS stimulation, activation = cell size >800 μm2) of the same compound?
Its inhibition at 10 µM is 16%.

What about the “Fibrin % cell toxicity” value (primary rat microglia [4]; primary microglia HTS, fibrin stimulation, toxicity = cell size <150 μm2) of the same compound?
Its value is 1%.

What about the “Quadrant (FIG. 5b)” value [5, 15] of the same compound?
Its value is “Q4”.

For `CCOC(=O)C1=C(C)NC(C)=C(C(=O)OC)C1c1cccc([N+](=O)[O-])c1` (stereo not shown) [Nitrendipine], which inhibition at 10 µM [1, 11] is on record?
Its inhibition at 10 µM is -12%.

What about the “LPS % cell toxicity” value (primary rat microglia [2]; [12]) of the same compound?
Its value is 0%.

And the inhibition at 10 µM [3, 13]?
The inhibition at 10 µM was 18%.

And the “Fibrin % cell toxicity” value (primary rat microglia [4]; [14])?
Its value is 1%.

What about the “Quadrant (FIG. 5b)” value [5, 15] of the same compound?
Its value is “Q4”.
